Experimental data: patent US6214805A, “RNase L activators and antisense oligonucleotides effective to treat RSV infections” (priority 1997, dated 2001)
Like-named read-outs stand apart in the source and are kept apart here.

Legend:
RSV strain A2 [1] = assay: CPE inhibition assay in HEp-2 cells; assay type: cell-based, Respiratory syncytial virus; conditions: for EC50: human respiratory syncytial virus
Procedure: The CPE inhibition assay used in this study was performed as described by Sidwell and Huffman (Sidwell et al., 1971, Appl. Microbiol. 22:7979-7801) with slight modifications. Varying concentrations of test compounds were added to each plate containing near confluent cell monolayers (1×10^5 cells/well) followed immediately by the addition of virus at a multiplicity of infection (MOI)=0.01, and then incubated at 37° C. […] All compounds were assayed for virus inhibition in quadruplicate and for cytotoxicity in duplicate. For each compound, two wells were set aside as uninfected, untreated cell controls per test and four wells per test received virus only and represented controls for virus replication. […] For all CPE-based assays, the 50% effective concentration (EC50) was calculated by regression analysis using the means of the CPE ratings at each concentration of compound.

Hep-2 Cells [2] = assay: Cytotoxicity by morphological changes in HEp-2 cells (CPE inhibition assay); assay type: cell-based, human; conditions: Homo sapiens
Procedure: Embryonic African green monkey kidney cells (MA-104) were obtained from BioWhittaker, Inc. (Walkersville, Md.). HEp-2 cells were propagated from a human epidermoid carcinoma of the larynx (American Type Culture Collection, ATCC; Rockville, Md.). The cells were grown in minimal essential medium. (MEM, Gibco-BRL, Gaitherburg, Md.) supplemented with 0.1% NaHCO3 and 10% fetal bovine serum (FBS, Hyclone Laboratories, Logan Utah.). When performing antiviral assays, serum was reduced to 2% and 50 μg/ml gentamicin (Sigma Chemical Company, St. Louis, Mo.) was added to the medium.
Morphological changes due to compound cytotoxicity were graded on a scale of 0-5; grade 5 was defined as 100% cytotoxicity. The 50% cytotoxic dose (IC50 was calculated by regression analysis. A selective index (S.I.) was calculated for each compound [S.I.=(IC50)/(EC50 ].

MA-104 Cells = assay: Cytotoxicity to MA-104 cells (visual and dye uptake, rapidly dividing cells); assay type: cell-based, murine; conditions: MA104
Text: (§1) A comparison of the efficacies of spA4 -antiRSV3'3'T/(8281-8299) treatment and conventional ribarvirin treatment can be obtained by determining the RSV-inhibitory concentration and the cytotoxic concentration of each compound. Cultures of the human laryngeal carcinoma cell line HEp-2 and the […] renal cell line MA-104 were established and infected with an MOI=0.005. Cultures were fed twice daily. Treatment with either ribavirin or spA4 -antiRSV3'3'T/(8281-8299) was begun simultaneously with infection and continued for four days. Treatment was then withdrawn and the test read on day 5. The effects of treatment on RSV infection were reported as 1) an EC50, the concentration at which there was a 50% reduction in the observable cytopathic effects of infection and 2) an EC90, the concentration at which there was a 90% reduction in viral production. […] Therapeutic efficacy is estimated by the Selectivity Index, which is the ratio of IC50 /EC50.
(§2) IC50 50% inhibitory concentration for cytotoxicity to cells (visual

RSV strain A2 [3] = assay: Virus yield reduction in MA-104 cells; assay type: cell-based, Respiratory syncytial virus; conditions: human respiratory syncytial virus, MA104, 96 h, RSV yield reduced by 90%, MOI = 0.005, added twice daily for 4 d
Text: as §1
(§3) as determined with RSV strain A2, MOI = 0.005
(§4) Fresh medium and oligo or ribavirin added twice daily for 4 d and test read
EC90 effective concentration to reduce RSV yield by 90%.

Hep-2 Cells [4] = assay: Cytotoxicity to Hep-2 cells (visual and dye uptake, rapidly dividing cells); assay type: cell-based, human; conditions: Homo sapiens
Text: as §1, §2

RSV strain A2 [5] = assay: Antiviral activity in MA-104 cells, visual CPE; assay type: cell-based, Respiratory syncytial virus
Text: as §1, §3, §4
EC50 effective concentration to reduce RSV-induced CPE by 50%.

RSV CH18537 (B) = assay: Neutral red uptake assay in HEp-2 cells, RSV strain CH18537; assay type: cell-based, Respiratory syncytial virus; conditions: Table 12, neutral red
Procedure: (§5) This assay was performed by a modified method as described by Cavenaugh et al. (Cavenaugh et al. 1990, Invest. New Drugs 8:347-354). Briefly, medium was removed from each well of a plate scored for CPE from a CPE inhibition assay, 0.2 ml of neutral red (0.034% in PSS) was added to each of the wells of that plate and the plate incubated for 2 hr at 37° C. in the dark. The neutral red solution was removed from the wells and the wells rinsed twice with PBS (pH 7.4). Equal volumes (0.1 ml) of absolute ethanol and Sorenson citrate buffer (0.1 M sodium citrate, 0.1 M HCI, pH 4.2) were mixed together and added to each well. Plates were incubated in the dark for 30 min. at room temperature to solubilize the dye. The plates were then gently mixed on a 96-well plate adapted vortexer for 1 min. Absorbances at 540 nm and 450 nm were read with a microplate reader (Bio-Tek EL 1309; Bio-Tek Instruments, Inc. Winooski, Vt.). Absorbance values were expressed as percents of untreated controls and EC50 and IC50 values were calculated by regression analysis.
In this series, MP351 was added once a day for two days with fresh medium

RSV strain A2 [6] = assay: Neutral red uptake assay of CPE inhibition in HEp-2 cells; assay type: cell-based, Respiratory syncytial virus; conditions: for EC50: human respiratory syncytial virus
Procedure: as §5

[7] = HEp-2, 24 h, Table 10, CPE, q.d. 1 day (added along with virus, never replenished), HEp2

## NC(=O)c1ncn([C@@H]2O[C@H](CO)[C@@H](O)[C@H]2O)n1 [Ribavirin]
RSV strain A2 [1]; Table 10, CPE, B.I.D. 2 days, HEp2
  SI: > 57
RSV strain A2 [1]; Table 10, CPE, B.I.D. 3 days, HEp2
  SI: > 180
RSV strain A2 [1]; Table 10, CPE, B.I.D. 4 days, HEp2
  SI: 57
RSV strain A2 [1]; Table 10, CPE, q.d. 1 day (added along with virus, never replenished), HEp2
  SI: 57
RSV strain A2 [1]; Table 10, CPE, q.d. 3 days, HEp2
  SI: > 57
RSV strain A2 [1]; Table 10, CPE, q.d. 4 days, HEp2
  SI: > 57
RSV strain A2 [1]; Table 13, CPE, q.d., Day 0, HEp-2
  SI: 30
RSV strain A2 [1]; Table 13, CPE, q.d., Day 1, HEp-2
  SI: 8
RSV strain A2 [1]; Table 13, CPE, q.d., Day 2, HEp-2
  SI: 80
RSV strain A2 [1]; HEp-2, 0 h, Table 13, CPE, q.d., Day 0 (added immediately after virus exposure), HEp-2
  EC50: 12 µM
RSV strain A2 [1]; [7]
  EC50: 4 µM
RSV strain A2 [1]; HEp-2, 24 h, Table 13, CPE, q.d., fresh compound up to Day 1 post infection, HEp-2
  EC50: 4 µM
RSV strain A2 [1]; HEp-2, 48 h, Table 10, CPE, B.I.D. 2 days, HEp2, read-out: EC50
  EC50: < 4 µM
RSV strain A2 [1]; HEp-2, 48 h, Table 13, CPE, q.d., fresh compound up to Day 2 post infection, HEp-2, read-out: EC50
  EC50: 4 µM
RSV strain A2 [1]; HEp-2, 72 h, Table 10, CPE, B.I.D. 3 days, HEp2, read-out: EC50
  EC50: < 4 µM
RSV strain A2 [1]; HEp-2, 72 h, Table 10, CPE, q.d. 3 days, HEp2, read-out: EC50
  EC50: < 4 µM
RSV strain A2 [1]; HEp-2, 96 h, Table 10, CPE, B.I.D. 4 days, HEp2, read-out: EC50
  EC50: 4 µM
RSV strain A2 [1]; HEp-2, 96 h, Table 10, CPE, q.d. 4 days, HEp2, read-out: EC50
  EC50: < 4 µM
Hep-2 Cells [2]; HEp-2, 0 h, Table 13, CPE, q.d., Day 0, HEp-2
  IC50: 240 µM
Hep-2 Cells [2]; [7]
  IC50: 230 µM
Hep-2 Cells [2]; HEp-2, 24 h, Table 13, CPE, q.d., Day 1, HEp-2
  IC50: 320 µM
Hep-2 Cells [2]; HEp-2, 48 h, Table 10, CPE, B.I.D. 2 days, HEp2
  IC50: 230 µM
Hep-2 Cells [2]; HEp-2, 48 h, Table 13, CPE, q.d., Day 2, HEp-2
  IC50: 320 µM
Hep-2 Cells [2]; HEp-2, 72 h, Table 10, CPE, B.I.D. 3 days, HEp2
  IC50: 720 µM
Hep-2 Cells [2]; HEp-2, 72 h, Table 10, CPE, q.d. 3 days, HEp2
  IC50: 230 µM
Hep-2 Cells [2]; HEp-2, 96 h, Table 10, CPE, B.I.D. 4 days, HEp2
  IC50: 230 µM
Hep-2 Cells [2]; HEp-2, 96 h, Table 10, CPE, q.d. 4 days, HEp2
  IC50: 230 µM
Hep-2 Cells [2]; HEp-2, Table 12, CPE, test with 393 (clinical isolate), HEp-2
  IC50: 96 µM
Hep-2 Cells [2]; HEp-2, Table 12, CPE, test with CH18537 (B), HEp-2
  IC50: 208 µM
Hep-2 Cells [2]; HEp-2, Table 12, CPE, test with Long (A), HEp-2
  IC50: 205 µM
MA-104 Cells
  IC50: 210 µM
RSV strain A2 [3]
  EC90: 7 µM
Hep-2 Cells [4]
  IC50: 41 µM
RSV strain A2 [5]
  SI selectivity index = IC50/EC50: 210
RSV strain A2 [5]; human respiratory syncytial virus, MA104, 96 h, visual CPE, MOI = 0.005, added twice daily for 4 d, read on d 5
  EC50: 1 µM
RSV strain A2 [5]; listed as ribavirin
  SI selectivity index = IC50/EC50: about 200
RSV CH18537 (B)
  SI: 19
RSV CH18537 (B); human respiratory syncytial virus, 48 h, once a day for two days
  EC50: 12 µM
RSV strain A2 [6]; Table 11, neutral red, B.I.D. 2 days, HEp2
  SI: 130
RSV strain A2 [6]; Table 11, neutral red, B.I.D. 3 days, HEp2
  SI: > 175
RSV strain A2 [6]; Table 11, neutral red, B.I.D. 4 days, HEp2
  SI: 75
RSV strain A2 [6]; Table 11, neutral red, q.d. 1 day (added along with virus, never replenished), HEp2
  SI: > 120
RSV strain A2 [6]; Table 11, neutral red, q.d. 3 days, HEp2
  SI: 126
RSV strain A2 [6]; Table 11, neutral red, q.d. 4 days, HEp2
  SI: 36
RSV strain A2 [6]; Table 13, neutral red, q.d., Day 0, HEp-2
  SI: 27
RSV strain A2 [6]; Table 13, neutral red, q.d., Day 1, HEp-2
  SI: 28
RSV strain A2 [6]; Table 13, neutral red, q.d., Day 2, HEp-2
  SI: 80
RSV strain A2 [6]; HEp-2, 0 h, Table 13, neutral red, q.d., Day 0 (added immediately after virus exposure), HEp-2
  EC50: 12 µM
RSV strain A2 [6]; HEp-2, 24 h, Table 11, neutral red, q.d. 1 day (added along with virus, never replenished), HEp2
  EC50: 4 µM
RSV strain A2 [6]; HEp-2, 24 h, Table 13, neutral red, q.d., fresh compound up to Day 1 post infection, HEp-2
  EC50: 40 µM
RSV strain A2 [6]; HEp-2, 48 h, Table 11, neutral red, B.I.D. 2 days, HEp2
  EC50: 8 µM
RSV strain A2 [6]; HEp-2, 48 h, Table 13, neutral red, q.d., fresh compound up to Day 2 post infection, HEp-2, read-out: EC50
  EC50: 4 µM
RSV strain A2 [6]; HEp-2, 72 h, Table 11, neutral red, B.I.D. 3 days, HEp2, read-out: EC50
  EC50: < 4 µM
RSV strain A2 [6]; HEp-2, 72 h, Table 11, neutral red, q.d. 3 days, HEp2, read-out: EC50
  EC50: 8 µM
RSV strain A2 [6]; HEp-2, 96 h, Table 11, neutral red, B.I.D. 4 days, HEp2, read-out: EC50
  EC50: 8 µM
RSV strain A2 [6]; HEp-2, 96 h, Table 11, neutral red, q.d. 4 days, HEp2, read-out: EC50
  EC50: 20 µM
